From PubChem BioAssay AID2060622 (Molecular Pharmacology Branch, DTP, NCI, 2025)
Several values for one entry are separate records, joined by “and”; a condition that tells them apart may be missing. Identical values can stand only once.

Tested on: 242566-281-R-J2-PDC complex spheroid viability
Assay: Anticancer human tumor 242566-281-R-J2-PDC patient-derived pancreatic carcinoma cell line growth inhibition [CLK]
Conditions: for viability, T/C: stronger effect = lower value
From the text: A high-throughput screen of multi-cell type tumor spheroids was designed to identify active combinations of […] and targeted small molecules. Complex spheroids include a stromal component modeled by human endothelial cells (HUVEC) and fibroblasts modeled by human mesenchymal stem cells (MSCs). The concentration ranges selected for each drug and investigational agent were based upon clinically achievable concentrations if the clinical Cmax of the agent was known.
Compounds. The drugs and investigational agents: cirtuvivint (SM08502; NSC835563), CC-671 (NSC850746), vemurafenib (NSC761431), tapotoclax (NSC804041), sotorasib (NSC818433), adagrasib (NSC831453), MRTX-1133 (NSC836407), BAY2416964 (NSC825713), copanlisib (NSC816437), inavolisib (NSC800729), abemaciclib (NSC768073), osimertinib (NSC779217), entinostat (NSC756642), eltanexor (KPT-8602, NSC794443), venetoclax (NSC766270), ceralasertib (NSC777638), bortezomib (NSC756655), olaparib (NSC753686), talazoparib (NSC767125), alisertib (NSC759677), peposertib (NSC802822), gemcitabine (NSC613327), 5-fluorouracil (NSC19893), SN-38 (NSC673596), oxaliplatin (NSC266046), paclitaxel (NSC125973), and doxorubicin (NSC123127), were obtained from the National Cancer Institute (NCI) Developmental Therapeutics Program Chemical Repository. The FDA-approved anticancer drug set is available from the Developmental Therapeutics Program at https://dtp.cancer.gov/organization/dscb/obtaining/available plates.htm. […] The stock solutions were prepared in dimethyl sulfoxide (DMSO, Sigma-Aldrich, St. Louis, MO, cat. D2650), except for the platinum complexes which were prepared in saline (Quality Biological, Gaithersburg, MD, cat. 114-055-101), at 800-fold the tested concentration and stored at -70 degrees C prior to their use. All drugs and investigational agents were tested over a range starting from a high concentration at or near the clinical Cmax and decreasing in half-log increments. If the clinical Cmax for an agent had not been determined, the highest concentration tested was 10 microM.
Cell Culture. All cells were maintained in an incubator at 37 degrees C and 5% CO2 with 95% humidity. The PDC lines were cultured according to standard operating procedures established by the NCI PDMR. Briefly, all PDCs were thawed and cultured in Matrigel-coated flasks prepared with a working solution of 1X Ham's F-12 nutrient mix, without supplementation (Invitrogen, Waltham, MA, cat. 11765054), 100 U/mL penicillin-streptomycin (Invitrogen, cat. 15140122), and 2.5% Matrigel (Corning Inc., Corning, NY, cat. 354248) for the first three passages. The 947758-054-R-J2-PDC line was cultured in 6B/Colon 1A media, which includes advanced DMEM/F-12 (Thermo Fisher Scientific, cat. 12634028), 10 mM HEPES (Thermo Fisher Scientific, cat. 15630080), 1X GlutaMAX supplement (Thermo Fisher Scientific, cat. 35050061), 0.1 mg/mL primocin (InvivoGen, cat. ant-pm-2), 10% defined fetal bovine serum, heat inactivated (HyClone Laboratories Inc., cat. SH30070.03HI), 1.25 mM N-Acetyl-L-cysteine (Sigma-Aldrich, cat. A9165), 10 mM nicotinamide (Sigma-Aldrich, cat. N0636), 1X B-27 supplement (Thermo Fisher Scientific, cat. 17504044), 1X N-2 supplement (Thermo Fisher Scientific, cat. 17502048), and 10 microM Y-27632 dihydrochloride (Tocris Bioscience, cat. 1254). The 876862-298-R-J1-PDC was cultured in 6E media, which includes all 6B/Colon 1A media components plus 50% L-WRN conditioned media (ATCC, cat. CRL-3276), 50 ng/mL recombinant human EGF recombinant protein (hEGF; Thermo Fisher Scientific, cat. PHG0311), 10 ng/mL recombinant human fibroblast growth factor 10 (hGFG-10; PeproTech, cat. 100-26), 1 ng/mL recombinant human fibroblast growth factor 2 (hFGF-2; PeproTech, cat. 100-18B), and 1 µM prostaglandin E2 (PGE2; Tocris, cat. 2296). The 227483-062-R1-J1-PDC line was cultured in Panc media, containing all 6E components except hFGF-2, with the addition of 500 nM SB-431542 (Selleckchem, cat. S1067) and 10 nM gastrin (Tocris, cat. 3006). […]

[1] = curve of first compound, second compound 0.0316 µM
[2] = curve of first compound, second compound 0.1 µM
[3] = curve of first compound, second compound 0.316 µM
[4] = curve of first compound, second compound 1 µM
[5] = curve of first compound, second compound 3.16 µM
[6] = curve of first compound, second compound 10 µM
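Further: spheroids exposed to compounds for 7 days before readout.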
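Wherever viability, T/C is given: 100% = DMSO vehicle control wells.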

O=c1[nH]cc(F)c(=O)[nH]1 + CNC(=O)c1ccc(Nc2nc(OC3CCCC3)c3c(-c4ccc5nc(C)oc5c4)c[nH]c3n2)c(OC)c1
IC50 [1]: > 10000 nM
IC50 [2]: > 10000 nM
IC50 [3]: 5150 nM
IC50 [4]: 1940 nM
IC50 [5]: 77.6 nM
IC50 [6]: < 31.6 nM
viability, T/C (second compound 0.0316 µM, first compound 0.0316 µM): 108%
viability, T/C (second compound 0.0316 µM, first compound 0.1 µM): 116%
viability, T/C (second compound 0.0316 µM, first compound 0.316 µM): 83.9%
viability, T/C (second compound 0.0316 µM, first compound 1 µM): 91.4%
viability, T/C (second compound 0.0316 µM, first compound 3.16 µM): 66.5%
viability, T/C (second compound 0.0316 µM, first compound 10 µM): 53.5%
viability, T/C (second compound 0.1 µM, first compound 0.0316 µM): 96%
viability, T/C (second compound 0.1 µM, first compound 0.1 µM): 96.5%
viability, T/C (second compound 0.1 µM, first compound 0.316 µM): 86.4%
viability, T/C (second compound 0.1 µM, first compound 1 µM): 71.7%
viability, T/C (second compound 0.1 µM, first compound 3.16 µM): 63.9%
viability, T/C (second compound 0.1 µM, first compound 10 µM): 52.2%
viability, T/C (second compound 0.316 µM, first compound 0.0316 µM): 86.1%
viability, T/C (second compound 0.316 µM, first compound 0.1 µM): 66.9%
viability, T/C (second compound 0.316 µM, first compound 0.316 µM): 67.6%
viability, T/C (second compound 0.316 µM, first compound 1 µM): 74%
viability, T/C (second compound 0.316 µM, first compound 3.16 µM): 53.9%
viability, T/C (second compound 0.316 µM, first compound 10 µM): 41.3%
viability, T/C (second compound 1 µM, first compound 0.0316 µM): 67%
viability, T/C (second compound 1 µM, first compound 0.1 µM): 61.2%
viability, T/C (second compound 1 µM, first compound 0.316 µM): 62.6%
viability, T/C (second compound 1 µM, first compound 1 µM): 56.9%
viability, T/C (second compound 1 µM, first compound 3.16 µM): 45%
viability, T/C (second compound 1 µM, first compound 10 µM): 25.5%
viability, T/C (second compound 3.16 µM, first compound 0.0316 µM): 51.9%
viability, T/C (second compound 3.16 µM, first compound 0.1 µM): 50.7%
viability, T/C (second compound 3.16 µM, first compound 0.316 µM): 44.7%
viability, T/C (second compound 3.16 µM, first compound 1 µM): 46.2%
viability, T/C (second compound 3.16 µM, first compound 3.16 µM): 38.2%
viability, T/C (second compound 3.16 µM, first compound 10 µM): 22.5%
viability, T/C (second compound 10 µM, first compound 0.0316 µM): 48%
viability, T/C (second compound 10 µM, first compound 0.1 µM): 50.2%
viability, T/C (second compound 10 µM, first compound 0.316 µM): 47.3%
viability, T/C (second compound 10 µM, first compound 1 µM): 44.2%
viability, T/C (second compound 10 µM, first compound 3.16 µM): 34.2%
viability, T/C (second compound 10 µM, first compound 10 µM): 23.2%

NC(=O)C(=Cn1cnc(-c2cc(C(F)(F)F)cc(C(F)(F)F)c2)n1)c1cncnc1 + CN1CCN(c2cc(C(=O)Nc3cc4cc(-c5cnn(C)c5)ccc4cn3)ccn2)CC1
IC50 [1]: 978 nM
IC50 [2]: 465 nM
IC50 [3]: < 9.49 nM
IC50 [4]: < 9.49 nM
IC50 [5]: < 9.49 nM
IC50 [6]: < 9.49 nM
viability, T/C (second compound 0.0316 µM, first compound 0.00949 µM): 99.3%
viability, T/C (second compound 0.0316 µM, first compound 0.03 µM): 106%
viability, T/C (second compound 0.0316 µM, first compound 0.0949 µM): 97%
viability, T/C (second compound 0.0316 µM, first compound 0.3 µM): 84.1%
viability, T/C (second compound 0.0316 µM, first compound 0.949 µM): 50.9%
viability, T/C (second compound 0.0316 µM, first compound 3 µM): 19.7%
viability, T/C (second compound 0.1 µM, first compound 0.00949 µM): 92.5%
viability, T/C (second compound 0.1 µM, first compound 0.03 µM): 83.6%
viability, T/C (second compound 0.1 µM, first compound 0.0949 µM): 84.4%
viability, T/C (second compound 0.1 µM, first compound 0.3 µM): 60%
viability, T/C (second compound 0.1 µM, first compound 0.949 µM): 31.7%
viability, T/C (second compound 0.1 µM, first compound 3 µM): 7.32%
viability, T/C (second compound 0.316 µM, first compound 0.00949 µM): 29.2%
viability, T/C (second compound 0.316 µM, first compound 0.03 µM): 16.8%
viability, T/C (second compound 0.316 µM, first compound 0.0949 µM): 6.44%
viability, T/C (second compound 0.316 µM, first compound 0.3 µM): 3.56%
viability, T/C (second compound 0.316 µM, first compound 0.949 µM): 3.41%
viability, T/C (second compound 0.316 µM, first compound 3 µM): 4.67%
viability, T/C (second compound 1 µM, first compound 0.00949 µM): 3.11%
viability, T/C (second compound 1 µM, first compound 0.03 µM): 4.63%
viability, T/C (second compound 1 µM, first compound 0.0949 µM): 6.18%
viability, T/C (second compound 1 µM, first compound 0.3 µM): 6.13%
viability, T/C (second compound 1 µM, first compound 0.949 µM): 6.09%
viability, T/C (second compound 1 µM, first compound 3 µM): 5.22%
viability, T/C (second compound 3.16 µM, first compound 0.00949 µM): 5.89%
viability, T/C (second compound 3.16 µM, first compound 0.03 µM): 6.16%
viability, T/C (second compound 3.16 µM, first compound 0.0949 µM): 8.1%
viability, T/C (second compound 3.16 µM, first compound 0.3 µM): 7.76%
viability, T/C (second compound 3.16 µM, first compound 0.949 µM): 7.74%
viability, T/C (second compound 3.16 µM, first compound 3 µM): 6.2%
viability, T/C (second compound 10 µM, first compound 0.00949 µM): 1.11%
viability, T/C (second compound 10 µM, first compound 0.03 µM): 1.56%
viability, T/C (second compound 10 µM, first compound 0.0949 µM): 0.89%
viability, T/C (second compound 10 µM, first compound 0.3 µM): 1.02%
viability, T/C (second compound 10 µM, first compound 0.949 µM): 0.68%
viability, T/C (second compound 10 µM, first compound 3 µM): 0.27%

COc1ccc([C@@H](O)c2cc(-c3ncnc4cc(N5CCOCC5)ccc34)c(F)cc2Cl)nn1
viability, T/C (compound 0.0316 µM): 112% and 89.3%
viability, T/C (compound 0.1 µM): 111% and 92.2%
viability, T/C (compound 0.316 µM): 96.7% and 104%
viability, T/C (compound 1 µM): 83.7% and 91.3%
viability, T/C (compound 3.16 µM): 77.1% and 92.4%
viability, T/C (compound 10 µM): 48.2% and 71.3%
IC50 (curve of compound): > 10000 nM
